Laboratory results: patent US11629201B2, “PSMA-binding agents and uses thereof” (ITM Isotope Technologies Munich SE, priority 2017, dated 2023)

Columns and labels:
[1] = n-Octanol/PBS distribution coefficient (log D); assay type: physicochemical; settings: n-octanol/PBS; radiolabeled ligand, 50 MBq/nmol, PBS pH 7.4
Description: The radioligand (0.5 MBq; 10 pmol, 25 μL) was then added to a reagent tube containing 1475 μL of PBS pH 7.4 and 1500 μL of n-octanol. The vials were vortexed vigorously followed by a centrifugation step for phase separation.
Determination of n-Octanol/PBS Distribution Coefficients (Log D Values). The distribution coefficients (log D values) of the ^64Cu-labeled radioligands (50 MBq/nmol) were determined by a shake-flask method using liquid-liquid extraction followed by phase separation as previously reported. Three experiments were performed with five replicates for each radioligand. Statistical significance of the data (p<0.05) was evaluated using an unpaired t-test (GraphPad Prism software, version 7).
Determination of n-Octanol/PBS Distribution Coefficients (Log D Values). […] A sample of the radioligands was mixed with phosphate-buffered saline (PBS) and n-octanol followed by vigorous vortexing. […] Three experiments were performed with five replicates for each compound.

[2] = tested on: PC-3 PIP/flu tumor-bearing mice; test: Biodistribution studies in PC-3 PIP/flu tumor-bearing mice; settings: for Tumor-to-blood / Tumor-to-kidney / Tumor-to-liver: PC-3 PIP tumor
[3] = tested on: PC-3 PIP tumor; test: Therapy study in PC-3 PIP tumor-bearing mice; assay type: in vivo
Excerpt: Mice of Groups B and D received 2 MBq of the radioligand (1 nmol/mouse), whereas mice of Groups C and E received 5 MBq of the radioligand (1 nmol/mouse). The mice were monitored by measuring body weights and the tumor size every other day over 12 weeks. Mice were euthanized when pre-defined endpoint criteria were reached, or when the study was terminated at Day 84. The relative body weight (RBW) was defined as [BWx/BW0], where BWx is the body weight in gram at a given day x and BW0 the body weight in gram at day 0. The tumor dimension was determined by measuring the longest tumor axis (L) and its perpendicular axis (W) with a digital caliper. The tumor volume (V) was calculated according to the equation [V=0.5*(L*W2)]. The relative tumor volume (RTV) was defined as [TVx/TV0], where TVx is the tumor volume in mm3 at a given day x and TV0 the tumor volume in mm3 at Day 0.
The efficacy of the radionuclide therapy was expressed as the tumor growth delay (TGDx), which was calculated as the time required for the tumor volume to increase x-fold over the initial volume at the Day 0. The tumor growth delay index [TGDIx=TGDx(T)/TGDx(C)] was calculated as the TGDx ratio of treated mice (T) over control mice (C) for a 2-fold (x=2, TGD2) and 5-fold (x=5, TGD5) increase of the initial tumor volume. As a measure to identify undesired side effects, body weights were compared at the day when the first control mouse had to be euthanized. After euthanasia, kidneys, liver and the brain were collected and weighed. The organ ratios (kidney-to-brain and liver-to-brain) were calculated using the organ masses obtained at the day of euthanasia.
The data was analyzed for significance as indicated in the result part using a one-way ANOVA with Tukey's multiple comparison post-test using GraphPad Prism software (version 7). A value of p<0.05 was considered statistically significant. Survival analysis was performed with Kaplan-Meier curves and a log-rank tests (Mantel Cox).

[4] = tested on: PSMA-positive PC-3 PIP cells; test: Cell uptake and internalization in PSMA-positive PC-3 PIP cells; assay type: cell-based; settings: 2 h and 4 h time-point, PC-3 PIP cells
[5] = 2 MBq/mouse (Groups B, D), control = 1

**Q.** With `O=C(O)CC[C@H](NC(=O)N[C@@H](CCCCNC(=O)[C@H](Cc1ccc2ccccc2c1)NC(=O)[C@H]1CC[C@H](CNC(=O)CN2CCN(CC(=O)O)CCN(CC(=O)O)CCN(CC(=O)O)CC2)CC1)C(=O)O)C(=O)O` [PSMA-617, reference compound] as the molecule, how does the logD [1] read?
**A.** The logD was -4.4 ± 0.15.

**Q.** With `O=C(O)CC[C@H](NC(=O)N[C@@H](CCCCNC(=O)[C@H](Cc1ccc2ccccc2c1)NC(=O)[C@H]1CC[C@H](CNC(=O)[C@@H](CCCCNC(=O)CN2CCN(CC(=O)O)CCN(CC(=O)O)CCN(CC(=O)O)CC2)NC(=O)CCCc2ccc(I)cc2)CC1)C(=O)O)C(=O)O` [PSMA-ALB-02] as the molecule, how does the logD [1] read?
**A.** Its logD is -2.8 ± 0.09.

**Q.** With `O=C(O)CCC(NC(=O)NC(CCCCNC(=O)C(Cc1ccc2ccccc2c1)NC(=O)C1CCC(CNC(=O)C(CCCCNC(=O)CN2CCN(CC(=O)O)CCN(CC(=O)O)CCN(CC(=O)O)CC2)NC(=O)CC(NC(=O)CC(NC(=O)CCCc2ccc(I)cc2)C(=O)O)C(=O)O)CC1)C(=O)O)C(=O)O` (centres unmarked) [PSMA-ALB-05] as the molecule, how does the logD [1] read?
**A.** The logD was -3.5 ± 0.08.

**Q.** For `O=C(O)CCC(NC(=O)NC(CCCCNC(=O)C(Cc1ccc2ccccc2c1)NC(=O)C1CCC(CNC(=O)C(CCCCNC(=O)CN2CCN(CC(=O)O)CCN(CC(=O)O)CCN(CC(=O)O)CC2)NC(=O)CC(NC(=O)CC(NC(=O)CC(NC(=O)CCCc2ccc(I)cc2)C(=O)O)C(=O)O)C(=O)O)CC1)C(=O)O)C(=O)O` (centres unmarked) [PSMA-ALB-07], which logD [1] is on record?
**A.** The logD was -3.9 ± 0.25.

**Q.** Which logD [1] does the source give for `Cc1ccc(CCCC(=O)NCCCCC(NC(=O)CN2CCN(CC(=O)O)CCN(CC(=O)O)CCN(CC(=O)O)CC2)C(=O)NCC2CCC(C(=O)NC(Cc3ccc4ccccc4c3)C(=O)NCCCCC(NC(=O)NC(CCC(=O)O)C(=O)O)C(=O)O)CC2)cc1` (centres unmarked) [^64Cu-PSMA-ALB-06, metal not drawn] here?
**A.** Its logD is -3.1 ± 0.1.

**Q.** Which Blood ([2]; 4 h p.i.) does the source give for `Cc1ccc(CCCC(=O)NCCCCC(NC(=O)CN2CCN(CC(=O)O)CCN(CC(=O)O)CCN(CC(=O)O)CC2)C(=O)NCC2CCC(C(=O)NC(Cc3ccc4ccccc4c3)C(=O)NCCCCC(NC(=O)NC(CCC(=O)O)C(=O)O)C(=O)O)CC2)cc1` (centres unmarked) [^177Lu-PSMA-ALB-06, metal not drawn] here?
**A.** The Blood was 16.2 ± 1.40 % IA/g.

**Q.** What about the Bone ([2]; 4 h p.i.) of the same molecule?
**A.** Its Bone is 2.23 ± 0.08 % IA/g.

**Q.** And the Intestines ([2]; 4 h p.i.)?
**A.** The Intestines was 2.64 ± 0.27 % IA/g.

**Q.** And the Lung ([2]; 4 h p.i.)?
**A.** The Lung was 9.40 ± 1.55 % IA/g.

**Q.** And the Muscle ([2]; 4 h p.i.)?
**A.** Its Muscle is 1.60 ± 0.38 % IA/g.

**Q.** And the “PC-3 PIP Tumor” value ([2]; 4 h p.i.)?
**A.** The value was 76.08 ± 7.67 % IA/g.

**Q.** What about the Tumor-to-blood ([2]; 4 h p.i.) of the same molecule?
**A.** Its Tumor-to-blood is 4.72 ± 0.51.

**Q.** And the Tumor-to-kidney ([2]; 4 h p.i.)?
**A.** The Tumor-to-kidney was 4.02 ± 0.25.

**Q.** What about the Tumor-to-liver ([2]; 4 h p.i.) of the same molecule?
**A.** The Tumor-to-liver was 24.29 ± 8.27.

**Q.** And the Blood ([2]; 24 h p.i.)?
**A.** The Blood was 1.49 ± 0.50 % IA/g.

**Q.** And the Bone ([2]; 24 h p.i.)?
**A.** Its Bone is 0.41 ± 0.15 % IA/g.

**Q.** And the Heart ([2]; 24 h p.i.)?
**A.** The Heart was 0.68 ± 0.18 % IA/g.

**Q.** What about the Intestines ([2]; 24 h p.i.) of the same molecule?
**A.** Its Intestines is 0.30 ± 0.06 % IA/g.

**Q.** What about the Lung ([2]; 24 h p.i.) of the same molecule?
**A.** Its Lung is 2.48 ± 2.68 % IA/g.

**Q.** And the Muscle ([2]; 24 h p.i.)?
**A.** Its Muscle is 0.21 ± 0.04 % IA/g.

**Q.** And the “PC-3 PIP Tumor” value ([2]; 24 h p.i.)?
**A.** Its value is 108 ± 11.6 % IA/g.

**Q.** What about the “PC-3 flu Tumor” value ([2]; 24 h p.i.) of the same molecule?
**A.** Its value is 0.79 ± 0.23 % IA/g.

**Q.** And the Spleen ([2]; 24 h p.i.)?
**A.** The Spleen was 0.76 ± 0.18 % IA/g.

**Q.** And the Stomach ([2]; 24 h p.i.)?
**A.** Its Stomach is 0.28 ± 0.07 % IA/g.

**Q.** And the Tumor-to-blood ([2]; 24 h p.i.)?
**A.** The Tumor-to-blood was 77.6 ± 21.8.

**Q.** What about the Tumor-to-kidney ([2]; 24 h p.i.) of the same molecule?
**A.** The Tumor-to-kidney was 10.4 ± 1.16.

**Q.** What about the Tumor-to-liver ([2]; 24 h p.i.) of the same molecule?
**A.** Its Tumor-to-liver is 222 ± 49.5.

**Q.** And the Blood ([2]; 72 h p.i.)?
**A.** The Blood was 0.62 ± 0.06 % IA/g.

**Q.** And the Bone ([2]; 72 h p.i.)?
**A.** Its Bone is 0.18 ± 0.01 % IA/g.

**Q.** What about the Heart ([2]; 72 h p.i.) of the same molecule?
**A.** Its Heart is 0.26 ± 0.02 % IA/g.

**Q.** And the Intestines ([2]; 72 h p.i.)?
**A.** The Intestines was 0.15 ± 0.00 % IA/g.

**Q.** What about the Kidneys ([2]; 72 h p.i.) of the same molecule?
**A.** Its Kidneys is 5.58 ± 0.62 % IA/g.

**Q.** What about the Liver ([2]; 72 h p.i.) of the same molecule?
**A.** The Liver was 0.28 ± 0.02 % IA/g.

**Q.** And the Lung ([2]; 72 h p.i.)?
**A.** The Lung was 0.67 ± 0.05 % IA/g.

**Q.** What about the “PC-3 PIP Tumor” value ([2]; 72 h p.i.) of the same molecule?
**A.** Its value is 77.9 ± 7.52 % IA/g.

**Q.** And the “PC-3 flu Tumor” value ([2]; 72 h p.i.)?
**A.** The value was 0.43 ± 0.03 % IA/g.

**Q.** And the Salivary glands ([2]; 72 h p.i.)?
**A.** Its Salivary glands is 0.24 ± 0.03 % IA/g.

**Q.** What about the Stomach ([2]; 72 h p.i.) of the same molecule?
**A.** Its Stomach is 0.13 ± 0.02 % IA/g.

**Q.** And the Tumor-to-blood ([2]; 72 h p.i.)?
**A.** The Tumor-to-blood was 127 ± 24.9.

**Q.** And the Tumor-to-kidney ([2]; 72 h p.i.)?
**A.** The Tumor-to-kidney was 14.1 ± 2.02.

**Q.** And the Tumor-to-liver ([2]; 72 h p.i.)?
**A.** The Tumor-to-liver was 277 ± 19.3.

**Q.** And the “first mouse of group euthanized” value ([3]; 2 MBq/mouse (Groups B, D))?
**A.** Its value is 28 days.

**Q.** And the median survival ([3]; 2 MBq/mouse (Groups B, D))?
**A.** Its median survival is 36 days.

**Q.** And the TGDI2 [3, 5]?
**A.** The TGDI2 was 1.8 ± 0.5.

**Q.** And the TGDI5 [3, 5]?
**A.** The TGDI5 was 2.3 ± 0.6.

**Q.** What about the tumor growth ([3]; 5 MBq/mouse (Group E)) of the same molecule?
**A.** The tumor growth was “the tumor growth was effectively inhibited”.

**Q.** What about the “mice in which tumors disappeared entirely, no regrowth until Day 84” value ([3]; 5 MBq/mouse (Group E), n=6) of the same molecule?
**A.** The value was “four”.

**Q.** What about the “mice still alive at the end of the study at Day 84” value ([3]; 5 MBq/mouse (Group E), n=6) of the same molecule?
**A.** The value was “four”.

**Q.** What about the “first mouse of group euthanized” value ([3]; 5 MBq/mouse (Groups C, E)) of the same molecule?
**A.** The value was 58 days.

**Q.** And the “internalized fraction / internalization rate versus reference” value [4]?
**A.** The value was “still comparable to ^177Lu-PSMA-617”.
